Measured values as given in patent US10668040B2, “Treatment of urea cycle disorders in neonates and infants” (Horizon Therapeutics, LLC, priority 2017, dated 2020).

Tests used:
[1] = HPN-100-009 (Example 2): plasma PBA, PAA, PAGN PK on first full day of RAVICTI dosing; type: in vivo, human; conditions: Age 2 Months to <2 Years, mean (SD)
Description: Plasma Phenylbutyrate/Phenylbutyric Acid (PB A) 1) Maximum Plasma Concentration (Cmax); 2) Minimum Plasma Concentration (Cmin); 3) Area Under the Curve from Time Zero to the Time of Last Quantifiable Concentration (AUC[0-Last]); and 4) Time to Cmax (Tmax) on the First Full Day of RAVICTI® Dosing.
(§1) End point description. Pharmacokinetic (PK) Evaluable Population: all subjects from the safety population with individual concentration-time profiles that allow computation of meaningful PK parameter values. End point timeframe: Hour 0 and between 4 and 6 hours, 8 hours, and between 12 and 24 hours after the first dose of the day on Day 1 for stable subjects and on Day 2 for subjects in HAC.
Plasma Phenylacetate/Phenylacetic Acid (PAA) 1) Maximum Plasma Concentration (Cmax); 2) Minimum Plasma Concentration (Cmin); 3) Area Under the Curve from Time Zero to the Time of Last Quantifiable Concentration (AUC[0-Last]); and 4) Time to Cmax (Tmax) on the First Full Day of RAVICTI® Dosing.
as §1, with “PK” for “Pharmacokinetic (PK)”
Plasma Phenylacetylglutamine (PAGN) 1) Maximum Plasma Concentration (Cmax); 2) Minimum Plasma Concentration (Cmin); 3) Area Under the Curve from Time Zero to the Time of Last Quantifiable Concentration (AUC[0-Last]); and 4) Time to Cmax (Tmax) on the First Full Day of RAVICTI® Dosing.

UCD patients = assay: HPN-100-009 (Example 2): rate of hyperammonemic crises (HACs); type: in vivo, human; conditions: Age 2 Months to <2 Years
Description: HPN-100-009 is an open-label study consisting of a transition period to HPN-100, followed by a safety extension period for at least 6 months and up to 24 months of treatment with HPN-100, depending on age at enrollment. It is designed to capture information important for evaluating safety, pharmacokinetics and efficacy in young children. Subjects eligible for this study included patients ranging from newborn to <2 years of age with either a diagnosed or clinically suspected UCD. Ten infant and toddler (28 days to 23 months) subjects were enrolled in this study.
Subjects aged 2 months to <2 years received RAVICTI® Oral Liquid administered just prior to breastfeeding or intake of formula or food. The recommended dosing regimen is 3-6 times per day depending on feeding schedule and at the discretion of the Investigator. The starting dose of RAVICTI® was based on UCD status (newly diagnosed, or already stable on sodium phenylbutyrate [NaPBA] and/or sodium benzoate [NaBz]) and whether a hyperammonemic crisis is present. Subsequently, the dose was adjusted based on clinical and/or ammonia results, according to an algorithm provided in the protocol.
Rate of Hyperammonemic Crises (HACs) During the First 6 Months on RAVICTI®.
End point description. A HAC was defined having signs and symptoms consistent with hyperammonemia (such as but not limited to frequent vomiting, nausea, headache, lethargy, irritability, combativeness, somnolence) associated with high blood ammonia and requiring medical intervention. Rate of HACs prior to enrollment was calculated as sum of (number of HAC)/sum of (subject age in days at the time of enrollment or 365 days, whichever was less) across all subjects in the corresponding group. Rate of HACs per 6 months during the safety extension was calculated as sum of (number of HAC)/sum of (days during first 6 months starting on Day 8 or number days on RAVICTI®, whichever was less) across all subjects in the corresponding group. Safety population: all enrolled subjects who received any amount of study medication. […]

O=C(CCCc1ccccc1)OCC(COC(=O)CCCc1ccccc1)OC(=O)CCCc1ccccc1 [RAVICTI, benzenebutanoic acid, 1′,1″-(1,2,3-propanetriyl) ester]
Plasma PAA AUC[0-last] [1]: 246.126 (±238.547) (μg * hr/mL)
Plasma PAA Cmax [1]: 36.52 (±31.784) (μg/mL)
Plasma PAA Cmin [1]: 4.197 (±6.434) (μg/mL)
Plasma PAA Tmax [1]: 7.422 (±7.351) (hrs)
Plasma PAGN AUC[0-last] [1]: 583.835 (±285.241) (μg * hr/mL)
Plasma PAGN Cmax [1]: 62.45 (±27.281) (μg/mL)
Plasma PAGN Cmin [1]: 20.62 (±14.529) (μg/mL)
Plasma PAGN Tmax [1]: 6.573 (±7.181) (hrs)
Plasma PBA AUC[0-last] [1]: 280.936 (±293.553) (μg * hr/mL)
Plasma PBA Cmax [1]: 42.44 (±36.715) (μg/mL)
Plasma PBA Cmin [1]: 1.697 (±2.254) (μg/mL)
Plasma PBA Tmax [1]: 8.383 (±4.564) (hrs)
Rate of HACs During Safety Extension (UCD patients; Day 8 up to Month 6, n = 9): 0.006
Rate of HACs During Transition (Days 1-7) (UCD patients; n = 10): 0
Rate of HACs Prior to Enrollment (UCD patients; up to 365 days prior to enrollment, n = 10): 0.11
